Bounds are passed on as bounds.

As usually defined, the AC50 is the midpoint of the concentration-response curve, whichever way the signal moves. Read a high AC50 as weaker potency.

The subject of the experiment is TFEB. The experiment in a line: TFEB nuclear translocation assay, HeLa wt cells. The conditions noted are these: Homo sapiens, HeLa, 2 h, 2 hrs compound treatment, Table 1 does not say HeLa wt or TRPML1 KO. It is filed as cell-based. In a few lines:
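Cells are plated overnight, exposed to compounds for 2 hrs at 37° C, fixed with 4% PFA, blocked, and stained overnight at 4° C with rabbit anti-TFEB. After Alexa 488 secondary and Hoechst, nuclei and a perinuclear ring are segmented to give a nuclear:ring intensity ratio and AC50.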
`CC1(C)CC2(CCN(c3ccccc3NS(=O)(=O)c3ccc4c(c3)OC(C)(C)C4)CC2)CO1` [Compound A-720, N-(2-{3,3-dimethyl-2-oxa-8-azaspiro[4.5]decan-8-yl}phenyl)-2,2-dimethyl-2,3-dihydro-1-benzofuran-6-sulfonamide] registered an AC50 of 2010 to 8000 nM.
With `COCC1(C)CCN(c2ccccc2NS(=O)(=O)c2ccc3c(c2)OC(C)(C)O3)CC1` [Compound A-721, N-{2-[4-(methoxymethyl)-4-methylpiperidin-1-yl]phenyl}-2,2-dimethyl-2H-1,3-benzodioxole-5-sulfonamide] the figure was at most 2000 nM; with `CN(C)S(=O)(=O)c1ccc(S(=O)(=O)Nc2ccccc2N2CCC(F)(CCO)CC2)cc1` [Compound A-722, N4-{2-[4-fluoro-4-(2-hydroxyethyl)piperidin-1-yl]phenyl}-N1,N1-dimethylbenzene-1,4-disulfonamide], at least 10000 nM; with `CC1(C)CC2(CCN(c3ccccc3NS(=O)(=O)c3ccc4c(c3)OC3(CCC3)O4)CC2)CO1` [Compound A-723, N-(2-{3,3-dimethyl-2-oxa-8-azaspiro[4.5]decan-8-yl}phenyl)spiro[1,3-benzodioxole-2,1′-cyclobutane]-6-sulfonamide], at most 2000 nM.
`CN(C)S(=O)(=O)c1ccc(S(=O)(=O)Nc2cccc(C#N)c2N2CCC3(CC2)COC(C)(C)C3)cc1` [Compound A-724, N4-(3-cyano-2-{3,3-dimethyl-2-oxa-8-azaspiro[4.5]decan-8-yl}phenyl)-N1,N1-dimethylbenzene-1,4-disulfonamide] returned an AC50 of at most 2000 nM.
With `CN(C)S(=O)(=O)c1ccc(S(=O)(=O)Nc2ccccc2N2CCC(C(C)(C)O)CC2)cc1` [Compound A-725, N4-{2-[4-(2-hydroxypropan-2-yl)piperidin-1-yl]phenyl}-N1,N1-dimethylbenzene-1,4-disulfonamide] the figure was 8010 to 9990 nM; with `CC1(C)CC2(CCN(c3ccccc3NS(=O)(=O)c3ccc4c(c3)CCOC4)CC2)CO1` [Compound A-726, N-(2-{3,3-dimethyl-2-oxa-8-azaspiro[4.5]decan-8-yl}phenyl)-3,4-dihydro-1H-2-benzopyran-6-sulfonamide], 2010 to 8000 nM; with `COCC1(C)CCN(c2ccccc2NS(=O)(=O)c2ccc3c(c2)CCOC3)CC1` [Compound A-727, N-{2-[4-(methoxymethyl)-4-methylpiperidin-1-yl]phenyl}-3,4-dihydro-1H-2-benzopyran-6-sulfonamide], 2010 to 8000 nM.
With `CN(C)S(=O)(=O)c1ccc(S(=O)(=O)N(C)c2cc(F)ccc2N2CCC3(CC2)COC(C)(C)C3)cc1` [Compound A-728, N1-(2-{3,3-dimethyl-2-oxa-8-azaspiro[4.5]decan-8-yl}-5-fluorophenyl)-N1,N4,N4-trimethylbenzene-1,4-disulfonamide] the figure was 2010 to 8000 nM.
Then `CN(C)S(=O)(=O)c1ccc(S(=O)(=O)N(C)c2ccc(F)cc2N2CCC3(CC2)COC(C)(C)C3)cc1` [Compound A-729, N1-(2-{3,3-dimethyl-2-oxa-8-azaspiro[4.5]decan-8-yl}-4-fluorophenyl)-N1,N4,N4-trimethylbenzene-1,4-disulfonamide], with 2010 to 8000 nM; and `CN(C)S(=O)(=O)c1ccc(S(=O)(=O)Nc2ccccc2N2CCC(COCC(F)F)CC2)cc1` [Compound A-730, N4-(2-{4-[(2,2-difluoroethoxy)methyl]piperidin-1-yl}phenyl)-N1,N1-dimethylbenzene-1,4-disulfonamide], with at most 2000 nM.
Compound `COCC1(C)CCN(c2ccccc2NS(=O)(=O)c2ccc(S(C)(=O)=O)c(F)c2)CC1` [Compound A-731, 3-fluoro-4-methanesulfonyl-N-{2-[4-(methoxymethyl)-4-methylpiperidin-1-yl]phenyl}benzene-1-sulfonamide] yielded an AC50 of at least 10000 nM.
Consider `O=S(=O)(Nc1ccccc1N1CCC(c2ccc(Cl)cc2F)CC1)c1ccc(C2(C(F)(F)F)N=N2)cc1` [Compound A-732, N-{2-[4-(4-chloro-2-fluorophenyl)piperidin-1-yl]phenyl}-4-[3-(trifluoromethyl)-3H-diazirin-3-yl]benzene-1-sulfonamide], for which the AC50 fell in the range of 2010 to 8000 nM.
Then `CN(C)S(=O)(=O)c1ccc(C(C)(C)Nc2ccccc2N2CCN(Cc3ccccc3)CC2)cc1` [Compound A-733, 4-(2-{[2-(4-benzylpiperazin-1-yl)phenyl]amino}propan-2-yl)-N,N-dimethylbenzene-1-sulfonamide], with 2010 to 8000 nM.
With `COCC1(C)CC2CCC(C1)N2c1ccccc1NS(=O)(=O)c1ccc(S(=O)(=O)N(C)C)cc1` (stereo not shown) [Compound A-734, N4-{2-[3-(methoxymethyl)-3-methyl-8-azabicyclo[3.2.1]octan-8-yl]phenyl}-N1,N1-dimethylbenzene-1,4-disulfonamide] the figure was at most 2000 nM; with `CN(C)S(=O)(=O)c1ccc(S(=O)(=O)Nc2ccccc2N2CCC3(COC(C)(C)C3)CC2=O)cc1` (stereo not shown) [Compound A-735, N4-(2-{3,3-dimethyl-7-oxo-2-oxa-8-azaspiro[4.5]decan-8-yl}phenyl)-N1,N1-dimethylbenzene-1,4-disulfonamide], at least 10000 nM; with `COCC1(C)CCN(c2ccccc2NS(=O)(=O)c2ccc(S(=O)(=O)N3CCC3)cc2)CC1` [Compound A-736, 4-(azetidine-1-sulfonyl)-N-{2-[4-(methoxymethyl)-4-methylpiperidin-1-yl]phenyl}benzene-1-sulfonamide], at most 2000 nM.
On to `CC(c1ccc(F)cc1N1CCC2(CC1)COC(C)(C)C2)S(=O)(=O)c1ccc(S(=O)(=O)N(C)C)cc1` (stereo not shown) [Compound A-737, 4-[1-(2-{3,3-dimethyl-2-oxa-8-azaspiro[4.5]decan-8-yl}-4-fluorophenyl)ethanesulfonyl]-N,N-dimethylbenzene-1-sulfonamide], for which the AC50 was at least 10000 nM.
In the case of `COCC1(C)CCN(c2ccccc2NS(=O)(=O)c2ccc3c(c2)OC(C)(C)C3)CC1` [Compound A-738, N-{2-[4-(methoxymethyl)-4-methylpiperidin-1-yl]phenyl}-2,2-dimethyl-2,3-dihydro-1-benzofuran-6-sulfonamide], the AC50 was at most 2000 nM.
Then `CN(C)S(=O)(=O)c1ccc(S(=O)(=O)Nc2ccccc2N2CCC(COC(C)(F)F)CC2)cc1` [Compound A-739, N4-(2-{4-[(1,1-difluoroethoxy)methyl]piperidin-1-yl}phenyl)-N1,N1-dimethylbenzene-1,4-disulfonamide], with at most 2000 nM.
In turn, `COCC1(C)CCN(c2ccccc2NS(=O)(=O)c2ccc(C3(C(F)(F)F)N=N3)cc2)CC1` [Compound A-740, N-{2-[4-(methoxymethyl)-4-methylpiperidin-1-yl]phenyl}-4-[3-(trifluoromethyl)-3H-diazirin-3-yl]benzene-1-sulfonamide] gave an AC50 of 8010 to 9990 nM.
In turn, `COC(C)C1(C)CCN(c2ccccc2NS(=O)(=O)c2ccc(S(=O)(=O)N(C)C)cc2)CC1` (stereo not shown) [Compound A-741, N4-{2-[4-(1-methoxyethyl)-4-methylpiperidin-1-yl]phenyl}-N1,N1-dimethylbenzene-1,4-disulfonamide] displayed an AC50 of at most 2000 nM.
With `CC1(C)CC2(CCN(c3ccccc3NS(=O)(=O)c3ccc4c(c3)C(C)(C)CO4)CC2)CO1` [Compound A-742, N-(2-{3,3-dimethyl-2-oxa-8-azaspiro[4.5]decan-8-yl}phenyl)-3,3-dimethyl-2,3-dihydro-1-benzofuran-5-sulfonamide] the figure was at most 2000 nM; with `CC1(C)CC2(CCN(c3ccccc3NS(=O)(=O)CCc3ccccc3)CC2)CO1` [Compound A-743, N-(2-{3,3-dimethyl-2-oxa-8-azaspiro[4.5]decan-8-yl}phenyl)-2-phenylethane-1-sulfonamide], at least 10000 nM.
Then `COCC1(C)CCN(c2ccccc2NS(=O)(=O)Cc2cccc(S(=O)(=O)COC)c2)CC1` [Compound A-744, 1-(3-methoxymethanesulfonylphenyl)-N-{2-[4-(methoxymethyl)-4-methylpiperidin-1-yl]phenyl}methanesulfonamide], with at least 10000 nM.
With `COCC1(C)CCN(c2ccccc2NS(=O)(=O)c2ccc(S(=O)(=O)N(C)C)cc2)C(C)C1` (stereo not shown) [Compound A-745, N4-{2-[4-(methoxymethyl)-2,4-dimethylpiperidin-1-yl]phenyl}-N1,N1-dimethylbenzene-1,4-disulfonamide] the figure was at least 10000 nM.
Consider `COCC1(C)CCN(c2c(NS(=O)(=O)c3ccc(S(=O)(=O)N(C)C)cc3)ccc3c2cnn3C)CC1` [Compound A-746, N4-{4-[4-(methoxymethyl)-4-methylpiperidin-1-yl]-1-methyl-1H-indazol-5-yl}-N1,N1-dimethylbenzene-1,4-disulfonamide], for which the AC50 is at most 2000 nM.
For `COCC1(C)CCN(c2ccccc2NS(=O)(=O)Cc2ccc(S(=O)(=O)COC)cc2)CC1` [Compound A-747, 1-(4-methoxymethanesulfonylphenyl)-N-{2-[4-(methoxymethyl)-4-methylpiperidin-1-yl]phenyl}methanesulfonamide], the AC50 is at least 10000 nM.
With `CC(C1CCN(c2c(F)cccc2NS(=O)(=O)c2ccc(S(=O)(=O)N(C)C)cc2)CC1)N1C[C@@H](C)O[C@@H](C)C1` (stereo partly drawn) [Compound A-748, N4-[2-(4-{1-[(2R,6S)-2,6-dimethylmorpholin-4-yl]ethyl}piperidin-1-yl)-3-fluorophenyl]-N1,N1-dimethylbenzene-1,4-disulfonamide] the figure was at most 2000 nM.
`O=S(=O)(Nc1cccc(Cl)c1N1CCCCC1)c1ccc(C2(C(F)(F)F)N=N2)cc1` [Compound A-749, N-[3-chloro-2-(piperidin-1-yl)phenyl]-4-[3-(trifluoromethyl)-3H-diazirin-3-yl]benzene-1-sulfonamide] returned an AC50 of 2010 to 8000 nM.
Turning to `CC(c1cccc(F)c1N1CCC(CN2C[C@@H](C)O[C@@H](C)C2)CC1)S(=O)(=O)c1ccc(S(=O)(=O)N(C)C)cc1` (stereo partly drawn) [Compound A-750, 4-{1-[2-(4-{[(2R,6S)-2,6-dimethylmorpholin-4-yl]methyl}piperidin-1-yl)-3-fluorophenyl]ethanesulfonyl}-N,N-dimethylbenzene-1-sulfonamide], the AC50 was at most 2000 nM.

These data come from US20230104936A1, “TRPML MODULATORS” (Casma Therapeutics, Inc., priority 2019, published 2023).
